In patent publication US4160097A, “1-(2-Phenylureylene)imidazoles” (Westwind Pharmaceuticals, Inc., priority 1977, dated 1979):
In brackets after ≈: the same amount, converted by molar mass.

Tested on: carrageenan rat paw edema
Test: Rat Paw Edema Assay, Oral Dosing
Format: in vivo
Conditions: 4 h, 100 mg/kg oral, four hours after drug, read-out: % Difference from Control
Method: (§1) The anti-inflammatory activity of representative compounds of this invention was determined by the rat paw edema assay both by local administration (Table XI below) and by oral dosing (Table XII below). For the oral dosing, the procedure of C. A. Winter, E. A. Risley and G. W. Nuss, Proc. Soc. Exp. Biol. Med. III, 544 (1962) was employed with measurement taken four hours after the drug was administered. The local administration tests were carried out similarly except the irritant (carrageenan) and the test compound were injected simultaneously at time zero.
(§2) Tables XI and XII report the anti-inflammatory activity of the compounds tested as % difference in the edema or swelling as compared with the control. These Tables also give the response in many instances of more than one dose level of the same drug.

Row | SMILES | change in vivo at 100 mg/kg [%]
1 | CCCCCCC(=O)Nc1ccccc1-n1ccnc1 [Compound 7] | -52
2 | CCCCCCCC(=O)Nc1ccccc1-n1ccnc1 [Compound 8] | -22
3 | CCCCCCCCCC(=O)Nc1ccccc1-n1ccnc1 [Compound 10] | -30
4 | O=C(C=Cc1ccccc1)Nc1ccccc1-n1ccnc1 [Compound 20] | -59
5 | Cc1ccccc1C(=O)Nc1ccccc1-n1ccnc1 [Compound 35] | -50
6 | CC(C)(C)c1ccc(C(=O)Nc2ccccc2-n2ccnc2)cc1 [Compound 39] | -50
7 | O=C(Nc1ccccc1-n1ccnc1)c1ccccc1Cl [Compound 49] | -35
8 | O=C(Nc1ccccc1-n1ccnc1)c1ccc(Cl)cc1 [Compound 51] | -57
9 | CCCc1nc2ccccc2n2ccnc12 [Compound 112] | -17
10 | CCCCCc1nc2ccccc2n2ccnc12 [Compound 114] | -61
11 | CCCCCCCc1nc2ccccc2n2ccnc12 [Compound 116] | 104
12 | FC(F)(F)c1nc2ccccc2n2ccnc12 [Compound 122] | -61
13 | c1ccc2c(c1)nc(C1CCCCC1)c1nccn12 [Compound 129] | -30
14 | Cc1ccccc1-c1nc2ccccc2n2ccnc12 [Compound 132] | -76
15 | Cc1ccc(-c2nc3ccccc3n3ccnc23)cc1 [Compound 134] | -43
16 | CC(C)(C)c1ccc(-c2nc3ccccc3n3ccnc23)cc1 [Compound 137] | -26
17 | Clc1ccc(-c2nc3ccccc3n3ccnc23)cc1 [Compound 140] | -35
18 | O=C(O)c1ccccc1-c1nc2ccccc2n2ccnc12 [Compound 148] | -52

Same assay, conditions: 4 h, 400 mg/kg oral, four hours after drug, read-out: % Difference from Control

Row | SMILES | change in vivo at 400 mg/kg [%]
19 | CCCCCCCC(=O)Nc1ccccc1-n1ccnc1 [Compound 8] | -13
20 | CCCc1nc2ccccc2n2ccnc12 [Compound 112] | -68
21 | CCCCCCCc1nc2ccccc2n2ccnc12 [Compound 116] | -18

Tested on: Trichophyton ajelloi
Test: Antifungal activity, agar dilution method
Format: cell-based
Conditions: Arthroderma uncinatum, T. ajelloi, read-out: Parts Per Million Inhibitions of T. ajelloi
Method: (§3) various compounds of this invention display antifungal and anti-yeast activity.
(§4) In Table IX below are listed the antifungal activity of a number of compounds encompassed in the present invention. These were determined by the agar dilution method as described in Chapters 2 and 3 of Methods in Microbiology, Vol. 7B, edited by J. R. Norris and D. W. Ribbons, Academic Press, New York, 1972.

Row | SMILES | MIC [µg/mL]
22 | O=C(C=Cc1ccccc1)Nc1ccccc1-n1ccnc1 [Compound 20] | 100 (≈ 346 µM)
23 | Cc1ccccc1C(=O)Nc1ccccc1-n1ccnc1 [Compound 35] | 100 (≈ 361 µM)
24 | CC(C)(C)c1ccc(C(=O)Nc2ccccc2-n2ccnc2)cc1 [Compound 39] | 100 (≈ 313 µM)
25 | COc1ccccc1C(=O)Nc1ccccc1-n1ccnc1 [Compound 58] | 100 (≈ 341 µM)
26 | O=C(Nc1ccccc1-n1ccnc1)c1ccc2ccccc2c1 [Compound 62] | 100 (≈ 319 µM)
27 | c1ccc(OCc2nc3ccccc3n3ccnc23)cc1 [Compound 126] | 100 (≈ 363 µM)
28 | c1ccc2c(c1)nc(C1CCCCC1)c1nccn12 [Compound 129] | 16 (≈ 63.7 µM)
29 | Cc1ccccc1-c1nc2ccccc2n2ccnc12 [Compound 132] | 100 (≈ 386 µM)
30 | Cc1ccc(-c2nc3ccccc3n3ccnc23)cc1 [Compound 134] | 100 (≈ 386 µM)
31 | c1ccc(-c2ccc(-c3nc4ccccc4n4ccnc34)cc2)cc1 [Compound 135] | 100 (≈ 311 µM)
32 | CC(C)(C)c1ccc(-c2nc3ccccc3n3ccnc23)cc1 [Compound 137] | 100 (≈ 332 µM)

Tested on: carrageenan rat paw edema
Test: Rat Paw Edema Assay, Local Administration
Format: in vivo
Conditions: 1 μg, injected directly into paw, read-out: % Difference from Control
Method: as §1, §2

Row | SMILES | change in vivo at 0.001 mg [%]
33 | CCCCCc1nc2ccccc2n2ccnc12 [Compound 114] | 68.2
34 | O=C(O)c1ccccc1-c1nc2ccccc2n2ccnc12 [Compound 148] | -32.6

Same assay, conditions: 10 μg, injected directly into paw, read-out: % Difference from Control

Row | SMILES | change in vivo at 0.01 mg [%]
35 | CCCCCc1nc2ccccc2n2ccnc12 [Compound 114] | -30
36 | O=C(O)c1ccccc1-c1nc2ccccc2n2ccnc12 [Compound 148] | -53.5

Same assay, conditions: 100 μg, injected directly into paw, read-out: % Difference from Control

Row | SMILES | change in vivo at 0.1 mg [%]
37 | CCCCCc1nc2ccccc2n2ccnc12 [Compound 114] | -132
38 | O=C(O)c1ccccc1-c1nc2ccccc2n2ccnc12 [Compound 148] | -14.3

Same assay, conditions: 100 mg/kg, local administration, read-out: % Difference from Control

Row | SMILES | change in vivo at 100 mg/kg [%]
39 | CCCCCCC(=O)Nc1ccccc1-n1ccnc1 [Compound 7] | -22
40 | O=C(Nc1ccccc1-n1ccnc1)c1ccccc1Cl [Compound 49] | -35
41 | O=C(Nc1ccccc1-n1ccnc1)c1ccc(Cl)cc1 [Compound 51] | -57
42 | FC(F)(F)c1nc2ccccc2n2ccnc12 [Compound 122] | -61
43 | Clc1ccc(-c2nc3ccccc3n3ccnc23)cc1 [Compound 140] | -78
44 | O=C(O)c1ccccc1-c1nc2ccccc2n2ccnc12 [Compound 148] | -39

Tested on: Trichophyton rubrum
Test: Antifungal activity, agar dilution method
Format: cell-based, Trichophyton rubrum (ATCC No. 10218 and 14001)
Conditions: T. rubrum, read-out: Parts Per Million Inhibitions of T. rubrum
Method: as §3, §4

Row | SMILES | MIC [µg/mL]
45 | CCCCCCCC(=O)Nc1ccccc1-n1ccnc1 [Compound 8] | 8 (≈ 28 µM)
46 | CCCCCCCCCC(=O)Nc1ccccc1-n1ccnc1 [Compound 10] | 16 (≈ 51 µM)
47 | COc1ccccc1C(=O)Nc1ccccc1-n1ccnc1 [Compound 58] | 100 (≈ 341 µM)
48 | O=C(Nc1ccccc1-n1ccnc1)c1ccc2ccccc2c1 [Compound 62] | 100 (≈ 319 µM)
49 | CCCc1nc2ccccc2n2ccnc12 [Compound 112] | 64 (≈ 303 µM)
50 | CCCCCc1nc2ccccc2n2ccnc12 [Compound 114] | 1 (≈ 4.18 µM)
51 | CCCCCCCc1nc2ccccc2n2ccnc12 [Compound 116] | 16 (≈ 59.8 µM)
52 | FC(F)(F)c1nc2ccccc2n2ccnc12 [Compound 122] | 32 (≈ 135 µM)
53 | c1ccc(OCc2nc3ccccc3n3ccnc23)cc1 [Compound 126] | 100 (≈ 363 µM)
54 | c1ccc2c(c1)nc(C1CCCCC1)c1nccn12 [Compound 129] | 8 (≈ 31.8 µM)
55 | Clc1ccc(-c2nc3ccccc3n3ccnc23)cc1 [Compound 140] | < 0.5

Tested on: humeral or antibody response
Test: hemolysin test in mice
Format: in vivo
Conditions: Mus musculus, sc, dose reducing antibody activity by 50% vs control, read-out: HL(ED50)

Row | SMILES | ED50 [mg/kg]
56 | CCCCCCCc1nc2ccccc2n2ccnc12 [Compound 116] | > 50
57 | c1ccc(OCc2nc3ccccc3n3ccnc23)cc1 [Compound 126] | 35
58 | Cc1ccc(-c2nc3ccccc3n3ccnc23)cc1 [Compound 134] | 0.5
59 | c1ccc(-c2ccc(-c3nc4ccccc4n4ccnc34)cc2)cc1 [Compound 135] | 0.033
60 | CC(C)(C)c1ccc(-c2nc3ccccc3n3ccnc23)cc1 [Compound 137] | < 0.125
61 | Clc1ccc(-c2nc3ccccc3n3ccnc23)cc1 [Compound 140] | 0.26

Tested on: Trichophyton mentagrophytes
Test: Antifungal activity, agar dilution method
Format: cell-based, Trichophyton mentagrophytes (ATCC No. 8757 and 9129)
Conditions: T. mentagrophytes, read-out: Parts Per Million Inhibitions of T. mentagrophytes
Method: as §3, §4

Row | SMILES | MIC [µg/mL]
62 | CCCCCCCC(=O)Nc1ccccc1-n1ccnc1 [Compound 8] | 8 (≈ 28 µM)
63 | CCCCCCCCCC(=O)Nc1ccccc1-n1ccnc1 [Compound 10] | 16 (≈ 51 µM)
64 | O=C(C=Cc1ccccc1)Nc1ccccc1-n1ccnc1 [Compound 20] | 100 (≈ 346 µM)
65 | Cc1ccccc1C(=O)Nc1ccccc1-n1ccnc1 [Compound 35] | 16 (≈ 57.7 µM)
66 | CC(C)(C)c1ccc(C(=O)Nc2ccccc2-n2ccnc2)cc1 [Compound 39] | 100 (≈ 313 µM)
67 | COc1ccccc1C(=O)Nc1ccccc1-n1ccnc1 [Compound 58] | 100 (≈ 341 µM)
68 | O=C(Nc1ccccc1-n1ccnc1)c1ccc2ccccc2c1 [Compound 62] | 100 (≈ 319 µM)
69 | CCCc1nc2ccccc2n2ccnc12 [Compound 112] | 128 (≈ 606 µM)
70 | CCCCCc1nc2ccccc2n2ccnc12 [Compound 114] | 16 (≈ 66.9 µM)
71 | CCCCCCCc1nc2ccccc2n2ccnc12 [Compound 116] | 16 (≈ 59.8 µM)
72 | c1ccc(OCc2nc3ccccc3n3ccnc23)cc1 [Compound 126] | 100 (≈ 363 µM)
73 | c1ccc2c(c1)nc(C1CCCCC1)c1nccn12 [Compound 129] | 16 (≈ 63.7 µM)
74 | Cc1ccccc1-c1nc2ccccc2n2ccnc12 [Compound 132] | 100 (≈ 386 µM)
75 | Cc1ccc(-c2nc3ccccc3n3ccnc23)cc1 [Compound 134] | 16 (≈ 61.7 µM)
76 | c1ccc(-c2ccc(-c3nc4ccccc4n4ccnc34)cc2)cc1 [Compound 135] | 100 (≈ 311 µM)
77 | CC(C)(C)c1ccc(-c2nc3ccccc3n3ccnc23)cc1 [Compound 137] | 100 (≈ 332 µM)

Tested on: cell-mediated immune response to the antigen, Mycobacterium tuberculosis H37Ra
Test: delayed hypersensitivity test
Format: in vivo, mouse
Conditions: Mus musculus, sc; mice; dose reducing edema of cell-mediated immune response by 60% vs control; read-out: D.H.S. (ED60)
Method: The immunosuppressant activities of the compounds of this invention were determined via the hemolysin test in mice and by the delayed hypersensitivity test. The hemolysin test used is that described in Methods in Immunology, edited by D. H. Campbell et al, W. A. Benjamin, New York 1963 pages 172-175, and measures humeral or antibody response. The delayed hypersensitivity test measures the effect of a test compound on the ability of a subject mouse to mount a cell-mediated immune response to the antigen, Mycobacterium tuberculosis H37Ra. The mouse is sensitized to the antigen by subcutaneous administration in the base of the tail. The development of the delayed hypersensitivity response may be measured at any time beginning six days after sensitization but is usually done on the ninth day as follows: The right hind paw is injected with purified protein derivative (tuberculin) while the left hind paw (control) receives physiological saline. Both paw volumes are measured after twenty-four hours and significant increase in the volume of the right hand paw is taken as a measure of an effective delayed hypersensitivity response. All compounds were administered by the subcutaneous route.
The D.H.S. (ED60) mg./kg. s.c. value appearing in column 3 is an expression of the effectiveness of the drug in reducing the edema that accompanies the cell-mediated immune response. It is a measure of the number of milligrams per kilogram of body weight of the drug administered subcutaneously which is required to reduce the edema of the cell-mediated immune response by 60% when compared to the control.

Row | SMILES | ED60 [mg/kg]
78 | CCCCCCCc1nc2ccccc2n2ccnc12 [Compound 116] | 56
79 | c1ccc(OCc2nc3ccccc3n3ccnc23)cc1 [Compound 126] | > 50
80 | Cc1ccc(-c2nc3ccccc3n3ccnc23)cc1 [Compound 134] | 7.2
81 | c1ccc(-c2ccc(-c3nc4ccccc4n4ccnc34)cc2)cc1 [Compound 135] | 0.22
82 | CC(C)(C)c1ccc(-c2nc3ccccc3n3ccnc23)cc1 [Compound 137] | 3.2
83 | Clc1ccc(-c2nc3ccccc3n3ccnc23)cc1 [Compound 140] | 1.15
